In the experiment the target is T1, FMS (h) (Homo sapiens, UniProt P07333).
T1 construct: purchased Reaction Biology Corp. (Kinase HotSpot service)
In words: Kinase HotSpot radiometric assay, activity on CSF-1R (FMS). The class given is biochemical.

Setting [1] is: Table 3, read-out: IC50 (M) on FMS.

Molecules are shown by their SMILES. Like-named read-outs stand apart in the source and are kept apart here.

Among the data in patent publication US20240308994A1, “ISOXAZOLE DERIVATIVE OR PHARMACEUTICALLY ACCEPTABLE SALT THEREOF AND USE THEREOF” (INDUSTRY-UNIVERSITY COOPERATION FOUNDATION HANYANG …, priority 2021, published 2024) are IC50 values, retold here.

T1 sequence (P07333 20-972): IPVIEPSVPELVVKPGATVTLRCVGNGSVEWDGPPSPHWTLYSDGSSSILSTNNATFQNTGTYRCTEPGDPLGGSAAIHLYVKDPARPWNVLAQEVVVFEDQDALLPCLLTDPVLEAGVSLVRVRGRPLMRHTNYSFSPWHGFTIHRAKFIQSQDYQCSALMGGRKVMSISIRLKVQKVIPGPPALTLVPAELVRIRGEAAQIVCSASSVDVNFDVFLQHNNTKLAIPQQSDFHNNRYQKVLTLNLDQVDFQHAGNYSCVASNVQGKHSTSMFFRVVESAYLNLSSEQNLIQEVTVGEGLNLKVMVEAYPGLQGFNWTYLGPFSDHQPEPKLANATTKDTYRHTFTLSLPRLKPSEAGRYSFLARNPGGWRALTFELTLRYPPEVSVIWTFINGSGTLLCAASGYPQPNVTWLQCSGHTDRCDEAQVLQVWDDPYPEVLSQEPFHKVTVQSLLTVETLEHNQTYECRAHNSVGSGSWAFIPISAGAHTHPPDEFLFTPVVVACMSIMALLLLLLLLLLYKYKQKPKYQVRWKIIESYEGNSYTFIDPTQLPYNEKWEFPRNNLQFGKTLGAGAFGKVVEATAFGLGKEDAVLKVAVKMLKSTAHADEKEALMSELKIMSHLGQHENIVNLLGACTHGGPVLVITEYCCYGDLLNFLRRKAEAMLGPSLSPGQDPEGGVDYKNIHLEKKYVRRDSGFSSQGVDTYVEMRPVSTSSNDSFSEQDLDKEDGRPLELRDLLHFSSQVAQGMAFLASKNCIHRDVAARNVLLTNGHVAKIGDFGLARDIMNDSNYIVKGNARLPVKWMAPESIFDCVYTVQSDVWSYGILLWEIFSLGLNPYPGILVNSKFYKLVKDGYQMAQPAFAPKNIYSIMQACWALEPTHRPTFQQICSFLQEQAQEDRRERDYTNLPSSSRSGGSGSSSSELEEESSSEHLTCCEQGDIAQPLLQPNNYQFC

Turning to `Cc1cc(C(=O)Nc2cc(NC(=O)c3ccc(-c4ccccc4)cc3)ccc2C)no1` [Compound 5f, N-(5-([1,1′-biphenyl]-4-carboxamido)-2-methylphenyl)-5-methylisoxazole-3-carboxamide], under setting [1], the half-inhibitory concentration (IC50) was greater than 1e-06 M. On the same count and under the same terms, the figure for `Cc1cc(C(=O)Nc2cc(NC(=O)c3cc(N4CCN(C)CC4)cc(-n4ccnc4C)c3)ccc2C)no1` [Compound 5g, 5-methyl-N-(2-methyl-5-(3-(2-methyl-1H-imidazol-1-yl)-5-(4-methylpiperazin-1-yl)benzamido)phenyl)isoxazole-3-carboxamide] is greater than 1e-06 M; for `Cc1cc(C(=O)Nc2cc(NC(=O)c3cc(NC4CCN(C)CC4)cc(-n4ccnc4C)c3)ccc2C)no1` [Compound 5h, 5-methyl-N-(2-methyl-5-(3-(2-methyl-1H-imidazol-1-yl)-5-((1-methylpiperidin-4-yl)amino)benzamido)phenyl)isoxazole-3-carboxamide] it is greater than 1e-06 M; for `Cc1cc(C(=O)Nc2cc(NC(=O)c3cc(N[C@@H]4CCCN(C)C4)cc(C(F)(F)F)c3)ccc2C)no1` [Compound 5l, (R)-5-Methyl-N-(2-methyl-5-(3-((1-methylpiperidin-3-yl)amino)-5-(trifluoromethyl)benzamido)phenyl)isoxazole-3-carboxamide] it is greater than 1e-06 M. On to `Cc1cc(C(=O)Nc2cc(NC(=O)c3cc(N4CCC([N+](C)(C)C)C4)cc(C(F)(F)F)c3)ccc2C)no1` (centres unmarked) [Compound 5m, N,N,N-trimethyl-1-(3-((4-methyl-3-(5-methylisoxazole-3-carboxamido)phenyl)carbamoyl)-5-(trifluoromethyl)phenyl)pyrrolidin-3-aminium], for which, under setting [1], the IC50 was greater than 1e-06 M.

In the case of `Cc1cc(C(=O)Nc2cc(NC(=O)c3ccc4ccccc4n3)ccc2C)no1` [Compound 5q, 5-methyl-N-(2-methyl-5-(quinoline-2-carboxamido)phenyl)isoxazole-3-carboxamide], the IC50 under setting [1] was greater than 1e-06 M.

For `Cc1cc(C(=O)Nc2cc(NC(=O)c3ccc4nn[nH]c4c3)ccc2C)no1` [Compound 5r, N-(5-(1H-benzo[d][1,2,3]triazole-6-carboxamido)-2-methylphenyl)-5-methylisoxazole-3-carboxamide], the IC50 under setting [1] was greater than 1e-06 M.

As for `Cc1cc(C(=O)Nc2cc(NC(=O)c3cnn(-c4ccccc4)c3C(F)(F)F)ccc2C)no1` [Compound 5s, 5-methyl-N-(2-methyl-5-(1-phenyl-5-(trifluoromethyl)-1H-pyrazole-4-carboxamido)phenyl)isoxazole-3-carboxamide], under setting [1], the IC50 is greater than 1e-06 M. Same read-out and setting: the figure for `Cc1cc(C(=O)Nc2cc(NC(=O)c3ccc4cn[nH]c4c3)ccc2C)no1` [Compound 5t, N-(5-(1H-indazole-6-carboxamido)-2-methylphenyl)-5-methylisoxazole-3-carboxamide] is greater than 1e-06 M; for `Cc1cc(C(=O)Nc2ccc(NC3CCOCC3)nc2C)no1` [Compound 17b, 5-methyl-N-(2-methyl-6-((tetrahydro-2H-pyran-4-yl)amino)pyridin-3-yl)isoxazole-3-carboxamide] it is less than 1e-07 M. Consider `Cc1cc(C(=O)Nc2ccc(C3CCNC3)cc2C2=CCCCC2)no1` (centres unmarked) [Compound 60a, 5-methyl-N-(5-(pyrrolidin-3-yl)-2′,3′,4′,5′-tetrahydro-[1,1′-biphenyl]-2-yl)isoxazole-3-carboxamide], for which the half-inhibitory concentration (IC50) fell in the range of 1e-07 to 1e-06 M (Table 1, read-out: IC50) and 1e-07 to 1e-06 M under setting [1].

In the case of `Cc1cc(C(=O)Nc2ccc(C3CCNCC3)cc2C2=CCCCC2)no1` [Compound 60b, 5-methyl-N-(5-(piperidin-4-yl)-2′,3′,4′,5′-tetrahydro-[1,1′-biphenyl]-2-yl)isoxazole-3-carboxamide], the IC50 reads like this: (Table 1, read-out: IC50) less than 1e-07 M; under setting [1], less than 1e-07 M. With `Cc1cc(C(=O)Nc2ccc(C3CCCNCC3)cc2C2=CCCCC2)no1` (centres unmarked) [Compound 60c, N-(5-(azepan-4-yl)-2′,3′,4′,5′-tetrahydro-[1,1′-biphenyl]-2-yl)-5-methylisoxazole-3-carboxamide], the IC50 is, setting by setting: (Table 1, read-out: IC50) less than 1e-07 M; under setting [1], less than 1e-07 M. In the case of `Cc1cc(C(=O)Nc2ccc(C3CCNCC3)cc2C2=CCCC2)no1` [Compound 61b, N-(2-(Cyclopent-1-en-1-yl)-4-(piperidin-4-yl)phenyl)-5-methylisoxazole-3-carboxamide], the IC50 runs as follows: (Table 1, read-out: IC50) greater than 1e-06 M; under setting [1], greater than 1e-06 M.

Turning to `Cc1cc(C(=O)Nc2ccc(C3CCNCC3)cc2-c2cncnc2)no1` [Compound 62b, 5-methyl-N-(4-(piperidin-4-yl)-2-(pyrimidin-5-yl)phenyl)isoxazole-3-carboxamide], the concentration for half-maximal inhibition (IC50) by setting is: (Table 1, read-out: IC50) greater than 1e-06 M; under setting [1], greater than 1e-06 M. Regarding `Cc1cc(C(=O)Nc2ccc(C3CCNCC3)cc2C2=CCC(C)CC2)no1` (centres unmarked) [Compound 63b, 5-Methyl-N-(4′-methyl-5-(piperidin-4-yl)-2′,3′,4′,5′-tetrahydro-[1,1′-biphenyl]-2-yl)isoxazole-3-carboxamide], the IC50 was less than 1e-07 M (Table 1, read-out: IC50) and less than 1e-07 M under setting [1]. `Cc1cc(C(=O)Nc2ccc(C3CCNCC3)cc2C2=CCC(C)(C)CC2)no1` [Compound 64b, N-(4′,4′-dimethyl-5-(piperidin-4-yl)-2′,3′,4′,5′-tetrahydro-[1,1′-biphenyl]-2-yl)-5-methylisoxazole-3-carboxamide]: the IC50 reads like this: (Table 1, read-out: IC50) less than 1e-07 M; under setting [1], less than 1e-07 M. Consider `Cc1cc(C(=O)Nc2ccc(C3CCCNCC3)cc2C2=CCC(C)(C)CC2)no1` (centres unmarked) [Compound 64c, N-(5-(azepan-4-yl)-4′,4′-dimethyl-2′,3′,4′,5′-tetrahydro-[1,1′-biphenyl]-2-yl)-5-methylisoxazole-3-carboxamide], for which the IC50 is, setting by setting: (Table 1, read-out: IC50) less than 1e-07 M; under setting [1], less than 1e-07 M. On to `Cc1cc(C(=O)Nc2ccc(C3CCNCC3)cc2C2CCCCC2)no1` [Compound 65b, N-(2-cyclohexyl-4-(piperidin-4-yl)phenyl)-5-methylisoxazole-3-carboxamide], for which the IC50 is greater than 1e-06 M (Table 1, read-out: IC50) and greater than 1e-06 M under setting [1].

Regarding `Cc1cc(C(=O)Nc2ccc(C3CCNCC3)cc2C2CCCC2)no1` [Compound 66b, N-(2-Cyclopentyl-4-(piperidin-4-yl)phenyl)-5-methylisoxazole-3-carboxamide], the IC50 is greater than 1e-06 M (Table 1, read-out: IC50) and greater than 1e-06 M under setting [1]. On to `Cc1cc(C(=O)Nc2ccc(C3CCN(C)CC3)cc2C2=CCCCC2)no1` [Compound 67b, 5-methyl-N-(5-(1-methylpiperidin-4-yl)-2′,3′,4′,5′-tetrahydro-[1,1′-biphenyl]-2-yl)isoxazole-3-carboxamide], for which the IC50 is, setting by setting: (Table 1, read-out: IC50) less than 1e-07 M; under setting [1], less than 1e-07 M. Regarding `Cc1cc(C(=O)Nc2ccc(C3CCCN(C)CC3)cc2C2=CCCCC2)no1` (centres unmarked) [Compound 67c, 5-methyl-N-(5-(1-methylazepan-4-yl)-2′,3′,4′,5′-tetrahydro-[1,1′-biphenyl]-2-yl)isoxazole-3-carboxamide], the IC50 is 1e-07 to 1e-06 M (Table 1, read-out: IC50) and 1e-07 to 1e-06 M under setting [1]. Regarding `Cc1cc(C(=O)Nc2ccc(C3CCCN(C)CC3)cc2C2=CCC(C)(C)CC2)no1` (centres unmarked) [Compound 68c], the IC50 by setting is: (Table 1, read-out: IC50) less than 1e-07 M; under setting [1], less than 1e-07 M.

Regarding `Cc1cc(C(=O)Nc2ccc(C3CCN(C)CC3)cc2C2CCCCC2)no1` [Compound 69b, N-(2-cyclohexyl-4-(1-methylpiperidin-4-yl)phenyl)-5-methylisoxazole-3-carboxamide], the IC50 reads like this: (Table 1, read-out: IC50) greater than 1e-06 M; under setting [1], greater than 1e-06 M. Consider `CCN1CCC(c2ccc(NC(=O)c3cc(C)on3)c(C3=CCCCC3)c2)CC1` [Compound 70b, N-(5-(1-ethylpiperidin-4-yl)-2′,3′,4′,5′-tetrahydro-[1,1′-biphenyl]-2-yl)-5-methylisoxazole-3-carboxamide], for which the IC50 under setting [1] was less than 1e-07 M. Consider `CCN1CCC(c2ccc(NC(=O)c3cc(C)on3)c(C3=CCCC3)c2)CC1` [Compound 71b, N-(2-(Cyclopent-1-en-1-yl)-4-(1-ethylpiperidin-4-yl)phenyl)-5-methylisoxazole-3-carboxamide], for which the IC50 reads like this: (Table 1, read-out: IC50) greater than 1e-06 M; under setting [1], greater than 1e-06 M.

Turning to `CCN1CCC(c2ccc(NC(=O)c3cc(C)on3)c(C3=CCC(C)CC3)c2)CC1` (centres unmarked) [Compound 72b, N-(5-(1-Ethylpiperidin-4-yl)-4′-methyl-2′,3′,4′,5′-tetrahydro-[1,1′-biphenyl]-2-yl)-5-methylisoxazole-3-carboxamide], the concentration for half-maximal inhibition (IC50) by setting is: (Table 1, read-out: IC50) less than 1e-07 M; under setting [1], less than 1e-07 M. Turning to `CCN1CCC(c2ccc(NC(=O)c3cc(C)on3)c(C3=CCC(C)(C)CC3)c2)CC1` [Compound 73b, N-(5-(1-ethylpiperidin-4-yl)-4′,4′-dimethyl-2′,3′,4′,5′-tetrahydro-[1,1′-biphenyl]-2-yl)-5-methylisoxazole-3-carboxamide], the IC50 (Table 1, read-out: IC50) was less than 1e-07 M and the IC50 under setting [1] was less than 1e-07 M. On to `CCN1CCC(c2ccc(NC(=O)c3cc(C)on3)c(C3CCCCC3)c2)CC1` [Compound 74b, N-(2-cyclohexyl-4-(1-ethylpiperidin-4-yl)phenyl)-5-methylisoxazole-3-carboxamide], for which the IC50 reads like this: (Table 1, read-out: IC50) greater than 1e-06 M; under setting [1], greater than 1e-06 M. Consider `CCN1CCC(c2ccc(NC(=O)c3cc(C)on3)c(C3CCCC3)c2)CC1` [Compound 75b, N-(2-Cyclopentyl-4-(1-ethylpiperidin-4-yl)phenyl)-5-methylisoxazole-3-carboxamide], for which the half-inhibitory concentration (IC50) was greater than 1e-06 M (Table 1, read-out: IC50) and greater than 1e-06 M under setting [1].

Regarding `CC(C)=CCN1CCC(c2ccc(NC(=O)c3cc(C)on3)c(C3=CCCCC3)c2)CC1` [Compound 76b, 5-methyl-N-(5-(1-(3-methylbut-2-en-1-yl)piperidin-4-yl)-2′,3′,4′,5′-tetrahydro-[1,1′-biphenyl]-2-yl)isoxazole-3-carboxamide], the half-inhibitory concentration (IC50) is, setting by setting: (Table 1, read-out: IC50) 1e-07 to 1e-06 M; under setting [1], less than 1e-07 M. On to `Cc1cc(C(=O)Nc2ccc(C3CCN(CC4CC4)CC3)cc2C2=CCC(C)CC2)no1` (centres unmarked) [Compound 77b, N-(5-(1-(cyclopropylmethyl)piperidin-4-yl)-4′-methyl-2,3,4,5′-tetrahydro-[1,1′-biphenyl]-2-yl)-5-methylisoxazole-3-carboxamide], for which the IC50 (Table 1, read-out: IC50) is less than 1e-07 M and the IC50 under setting [1] is less than 1e-07 M.

Broadly, the IC50 is the midpoint of a concentration-inhibition curve.
